Data taken from patent publication EP0220825A2, “Pharmaceutical composition for topical application” (DIOMED DEVELOPMENTS LIMITED, priority 1985, dated 1987).
Values joined by “and” are separate entries in the source; they are usually repeats but may differ in a detail not shown here. Equal values may be shown once.

How the values were obtained:
[1] = system: local blood flow; experiment: Laser Doppler flowmeter measurement of blood cell flux after topical application; format: in vivo; settings: for No. measurable responses: of ten subjects; for Time to response Initial / Time to response Peak / Time to response Return to zero: ± S.D.
Description: The blood cell flux is then given by the product of the number of red blood cells found to be moving in the irradiated volume of skin and adjacent tissue and the mean red blood cell velocity. The results expressed by the flowmeter indicate the relative change of the blood cell flux over control conditions, i.e. before application of the composition. […] The figures for "area" given in the third column are obtained by graphical integration of a graph of blood cell flux against time obtained using the laser Doppler flowmeter. Any figure in this column greater than about 20 may be regarded as indicative of a useful improvement in local blood flow in the treated area. […] Thus the compositions in accordance with the invention make it possible to obtain a useful increase in local blood flow without appreciable erythema. The compositions of the present invention are thus useful in preventing pressure sores where is it desired to stimulate local blood flow without obvious erythema.

[2] = system: skin; experiment: Erythema score after topical application; format: in vivo
Description: Using an erythema scale of 0 to 3, an erythema value of up to 0.5 (which is barely detectable) is considered acceptable. The figures for "area" given in the third column are obtained by graphical integration of a graph of blood cell flux against time obtained using the laser Doppler flowmeter. Any figure in this column greater than about 20 may be regarded as indicative of a useful improvement in local blood flow in the treated area. […] Thus the compositions in accordance with the invention make it possible to obtain a useful increase in local blood flow without appreciable erythema. The compositions of the present invention are thus useful in preventing pressure sores where is it desired to stimulate local blood flow without obvious erythema.

Q: For `CCCCCCOC(=O)c1cccnc1` [hexyl nicotinate, Hexyl nicotinate], which Area ([1]; 0.025 % hexyl nicotinate lotion, site arms, single subjects, area under curve of blood cell flux against time, adjusted to a sensitivity of 1) is on record?
A: 0 cm^2 (4×) and 124.05 cm^2

Q: What about the Area ([1]; 0.025 % hexyl nicotinate lotion, site buttocks, single subjects, area under curve of blood cell flux against time) of the same molecule?
A: 5.00 cm^2 and 0 cm^2 (3×) and 51.59 cm^2

Q: And the Area ([1]; 0.05 % hexyl nicotinate lotion (Example l), site arms, single subjects, area under curve of blood cell flux against time)?
A: 32.17 cm^2 and 0 cm^2 and 89.59 cm^2 and 80.90 cm^2 and 126.32 cm^2

Q: What about the Area ([1]; 0.05 % hexyl nicotinate lotion (Example l), site buttocks, single subjects, area under curve of blood cell flux against time) of the same molecule?
A: 91.86 cm^2 and 22.28 cm^2 and 4.29 cm^2 and 0 cm^2 and 64.73 cm^2

Q: What about the Area ([1]; 0.10 % hexyl nicotinate lotion, site arms, single subjects, area under curve of blood cell flux against time) of the same molecule?
A: 103.06 cm^2 and 0 cm^2 and 82.80 cm^2 and 152.26 cm^2 and 119.99 cm^2

Q: And the Area ([1]; 0.10 % hexyl nicotinate lotion, site buttocks, single subjects, area under curve of blood cell flux against time)?
A: 246.74 cm^2 and 119.97 cm^2 and 0 cm^2 and 5.24 cm^2 and 199.76 cm^2

Q: And the No. measurable responses ([1]; 0.025 % hexyl nicotinate)?
A: 2

Q: And the No. measurable responses ([1]; 0.05 % hexyl nicotinate)?
A: 8

Q: What about the No. measurable responses ([1]; 0.10 % hexyl nicotinate) of the same molecule?
A: 8

Q: What about the Area ([1]; summary of ten subjects, 0.025 % hexyl nicotinate) of the same molecule?
A: 18.05 cm^2

Q: And the Area ([1]; summary of ten subjects, 0.05 % hexyl nicotinate)?
A: 51.21 cm^2

Q: And the Area ([1]; summary of ten subjects, 0.10 % hexyl nicotinate)?
A: 102.98 cm^2

Q: And the “Time to response Initial” value ([1]; 0.025 % hexyl nicotinate)?
A: 5.5 ± 0.7 min

Q: And the “Time to response Peak” value ([1]; 0.025 % hexyl nicotinate)?
A: 22.5 ± 6.4 min

Q: What about the “Time to response Return to zero” value ([1]; 0.025 % hexyl nicotinate) of the same molecule?
A: 78.5 ± 16.3 min

Q: What about the “Time to response Initial” value ([1]; 0.05 % hexyl nicotinate) of the same molecule?
A: 10.6 ± 5.0 min

Q: And the “Time to response Peak” value ([1]; 0.05 % hexyl nicotinate)?
A: 27.9 ± 12.3 min

Q: What about the “Time to response Return to zero” value ([1]; 0.05 % hexyl nicotinate) of the same molecule?
A: 75.8 ± 19.2 min

Q: What about the “Time to response Initial” value ([1]; 0.10 % hexyl nicotinate) of the same molecule?
A: 7.8 ± 2.3 min

Q: And the “Time to response Peak” value ([1]; 0.10 % hexyl nicotinate)?
A: 20.8 ± 6.4 min

Q: What about the “Time to response Return to zero” value ([1]; 0.10 % hexyl nicotinate) of the same molecule?
A: 83.3 ± 17.7 min

Q: What about the Erythema ([2]; 0.025 % hexyl nicotinate lotion, site arms, single subjects, score 0-3 (0=No erythema, 3=severe erythema)) of the same molecule?
A: 0 (4×) and 0.5

Q: And the Erythema ([2]; 0.025 % hexyl nicotinate lotion, site buttocks, single subjects, score 0-3)?
A: 0 (4×) and 1

Q: And the Erythema ([2]; 0.05 % hexyl nicotinate lotion (Example l), site arms, single subjects, score 0-3)?
A: 0 (2×) and 0.5 (2×) and 1

Q: What about the Erythema ([2]; 0.05 % hexyl nicotinate lotion (Example l), site buttocks, single subjects, score 0-3) of the same molecule?
A: 1 (2×) and 0.5 and 0 (2×)

Q: And the Erythema ([2]; 0.10 % hexyl nicotinate lotion, site arms, single subjects, score 0-3)?
A: 2 (3×) and 0 and 1

Q: And the Erythema ([2]; 0.10 % hexyl nicotinate lotion, site buttocks, single subjects, score 0-3)?
A: 2 and 1 and 0.5 (2×) and 3

Q: And the Erythema ([2]; concentrations in the range 0.l to 0.2% by weight of the composition, patients)?
A: cause erytheme in a significant proportion of patients

Q: What about the Erythema ([2]; summary of ten subjects, 0.025 % hexyl nicotinate, score 0-3) of the same molecule?
A: 0.15

Q: And the Erythema ([2]; summary of ten subjects, 0.05 % hexyl nicotinate, score 0-3)?
A: 0.45

Q: And the Erythema ([2]; summary of ten subjects, 0.10 % hexyl nicotinate, score 0-3)?
A: 1.40
